From patent US20150239831A1, “INHIBITORS OF CENTRAL NERVOUS SYSTEM VASOACTIVE INHIBITORY PEPTIDE RECEPTOR 2” (The Trustees Of Columbia University In The City Of New York, priority 2012, published 2015)
“Also recorded” adds a separate entry of the source. Read-outs that look alike come from different tables or passages of the source.

Molecular target: T1, VIPR2 (Homo sapiens, UniProt P41587)
T1 sequence (P41587 24-438): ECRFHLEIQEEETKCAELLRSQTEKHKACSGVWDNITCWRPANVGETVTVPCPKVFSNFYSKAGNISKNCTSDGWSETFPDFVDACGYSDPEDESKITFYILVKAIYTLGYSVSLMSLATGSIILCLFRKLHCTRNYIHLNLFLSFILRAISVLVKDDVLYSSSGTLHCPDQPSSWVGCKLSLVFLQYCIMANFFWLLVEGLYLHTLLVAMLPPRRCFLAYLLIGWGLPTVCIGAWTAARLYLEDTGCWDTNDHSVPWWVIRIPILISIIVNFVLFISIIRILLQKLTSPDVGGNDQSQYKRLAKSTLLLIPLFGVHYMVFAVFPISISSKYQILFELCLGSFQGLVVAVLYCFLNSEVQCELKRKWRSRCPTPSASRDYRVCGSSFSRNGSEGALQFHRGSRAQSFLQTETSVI
Assay: BRET-based VIPR2 activation assay (CAMYEL cAMP sensor, CHO cells, VIP background)
Type: cell-based
Conditions: for VIPR2 inhibition in BRET-based assay (in words): FIG. 1C, FIG. 5
Source text: In such a system, a detector cell is used which expresses both the VIPR2 receptor and “CAMYEL,” a YFP-Epac-RLuc8 BRET sensor construct. This construct includes Epac1, a guanine nucleotide exchange factor activated by direct binding of cAMP, fused with an enhanced YFP and Renilla luciferase 8 (Rluc8) allowing BRET upon cAMP-induced conformational changes (Jiang et al., 2007, J Biol Chem. 282:10576-10584). In response to elevated cAMP levels, there is a conformational change in Epac and therefore a change in the proximity of the fused chromophores, Rluc8 and YFP, resulting in measurable energy transfer. Coexpression of this BRET construct with VIPR2, optionally tagged at the N-terminus with a signal peptide and FLAG epitope (SF-VIPR2), for example in HEK293 cells, allows for detection of a VIPR2-specific response to cAMP. BRET readout may be calculated by quantifying the ratio of the light emitted by the acceptor, YFP (λ=525 nm), over the emission from the donor, RLuc8 (λ=485 nm). The proximity of the donor and acceptor, and therefore the BRET ratio, decreases in the presence of cAMP. In non-limiting specific embodiments, a stable cell line may be generated for this assay using the Flp-In T-Rex system in HEK293 cells. This system allows site-specific single copy integration of the gene of interest and control of expression levels using the Tet-repressor site making receptor expression tetracycline-inducible. For example, a CAMYEL and VIPR2 expressing line may be induced with 0.01 μg/ml tetracycline, then, 24 hours later cells may be collected and distributed into 96-well plates. After treatment with candidate inhibitor compound, for example at 5, 1 and 0.5 μM concentrations, cells may be incubated with the light emitting luciferin, coelenterazine H, for 5 min and incubated for 5 min with VIP at increasing concentrations, for example ranging from […] to 10 μM. The fluorescence and luminescence may then be quantified, for example using a PHERAstar (BMG) plate reader. […] Alternatively, analogous experiments may be performed using human cells harvested from a patient having a VIPR2 copy number variation, for example (but not by way of limitation) pluripotent stem cells prepared from such a patient and then transfected with a CAMYEL construct.
Numerous cellular assays were developed that were able to detect VIP responses absent of interference from non-specific vasopressin receptors using this CHO based system. VIPR2 is a Gs coupled receptor. Activation of VIPR2 by VIP leads to both an elevation in cAMP signaling and the recruitment of β-arrestin. A variety of combinations can be transiently transfect into these CHO cells for the assessment of cellular responses to VIP. For the BRET readout CHO cell lines expressing an YFP-Epac-RLuc8 (CAMYEL) BRET sensor were used to detect changes in cAMP. This construct includes Epac1, a guanine nucleotide exchange factor activated by direct binding of cAMP, fused to an enhanced YFP and RLuc8 allowing a change in BRET upon cAMP-induced conformational changes. The key for medium to high throughput screening assays is the use of stable cell lines allowing the continuous assaying of multiple compounds with the ability to generate large numbers of cells for rapid use. In these lines VIPR2 was expressed as one of the stable cell lines assays. This was introduced into the CHO-Flp-IN to allow the generation of isogenic stable cell lines expressing high levels of VIPR2 under control of the CMV promoter. This has been introduced into this line together with the CAMYEL construct previously described. This allows for detection of VIPR2-specific responses to cAMP. EYFP fluorescence and RLuc8 luminescence is quantified in the presence of 5 μM light-emitting luciferin, coelenterazine H, using a PHERAstar (BMG) plate reader. BRET is calculated by quantifying the ratio of the light emitted by the acceptor, YFP (λ=525 nm), over the emission from the donor, RLuc8 (λ=485 nm).
3. […]

[1] = Table 2, read-out: BRET results (IC50)

Row | Structure (SMILES) | IC50 (Table 1, read-out: IC50) [µM] | IC50 [1] [µM] | VIPR2 inhibition in BRET-based assay (in words)
1 | O=C(N[C@H]1c2ccccc2C[C@H]1O)[C@H](Cc1ccccc1)C[C@H](O)CNS(=O)(=O)c1ccc(C(F)(F)F)cc1 [F] | – | 2.34 | greater activity than Compound 1; also recorded: greater effect on V IPR2 inhibition than Compound 1
2 | N#Cc1ccc(S(=O)(=O)NC[C@@H](O)C[C@@H](Cc2ccccc2)C(=O)N[C@H]2c3ccccc3C[C@H]2O)cc1 [C] | 1.33 | 1.33 | –
3 | CC(C)c1ccc(S(=O)(=O)NC[C@@H](O)C[C@@H](Cc2ccccc2)C(=O)N[C@H]2c3ccccc3C[C@H]2O)cc1 [Compound A10] | – | 3.44 | –

The next lines start with results.

Row | IC50 (Table 1, read-out: IC50) [µM] | IC50 [1] [µM] | Structure (SMILES) | VIPR2 inhibition in BRET-based assay (in words)
4 | 1.02 | 1.02 | COc1ccc(S(=O)(=O)NC[C@@H](O)C[C@@H](Cc2ccccc2)C(=O)N[C@H]2c3ccccc3C[C@H]2O)cc1 [E] | –
5 | 1.18 | 1.98 | Cc1ccc(S(=O)(=O)NC[C@@H](O)C[C@@H](Cc2ccccc2)C(=O)N[C@H]2c3ccccc3C[C@H]2O)cc1 [I] | –
6 | 0.426 | 0.426 | CC(=O)c1ccc(S(=O)(=O)NC[C@@H](O)C[C@@H](Cc2ccccc2)C(=O)N[C@H]2c3ccccc3C[C@H]2O)cc1 [K] | significantly improved activity as an antagonist at VIPR2
